Data published in patent EP0511816B1, “Neurotrophic peptide derivative” (SUMITOMO PHARMACEUTICALS COMPANY, LIMITED, priority 1991, dated 1999).
Ends that are not written are not given here. Peptide text beside a SMILES is read from it.

What was measured:
[1] = system: tissue of medial septum nuclei; test: neurotrophic activity: acceleration of acetylcholine synthesis in medial septum nuclei tissue (method of Ojika et al.); format: cell-based; conditions: qualitative statement, compared with rat-derived HCNP; no figures given
Text: The neurotrophic activity (also called neurotrophic factor activity) refers to, for example, an action of regulating differentiation and maturation of neuronal cells, namely, an action of accelerating the acetylcholine synthesis in the tissue of medial septum nuclei which is rich in cholinergic neurons.
The human-derived neurotrophic peptide or its derivatives of the present invention can regulate differentiation and maturation of neuronal cells. That is, the neurotrophic peptide and derivatives thereof accelerate the acetylcholine synthesis in the tissue of medial septum nuclei. The biological activity can be determined by the method of Ojika, K., et al. (Reference 66).

[2] = system: tissue of medial septum nuclei; conditions: rat medial septum nuclei acetylcholinergic neuron; Reference 1; cited from earlier work

CC(C)C[C@H](NC(=O)[C@@H]1CCCN1C(=O)CNC(=O)[C@H](CO)NC(=O)[C@H](Cc1c[nH]c2ccccc12)NC(=O)[C@H](CCCCN)NC(=O)[C@H](CO)NC(=O)[C@H](CC(C)C)NC(=O)[C@H](CC(=O)O)NC(=O)[C@@H](NC(=O)[C@@H]1CCCN1)C(C)C)C(=O)O [hHCNP] (H-PVDLSKWSGPL-OH)
neurotrophic activity [1]: neurotrophic activity similar to rat-derived HCNP was noted

AADISQWAGPL [HCNP, Hippocampal cholinergic neurotrophic peptide of 11 amino acid residues isolated from hippocampal tissue of neonatal rat by Ojika et al]
production of acetylcholine [2]: enhances production of acetylcholine
